Measurements taken from publication PMC13087548, “The Use of DeepQSAR Models for the Discovery of Peptides With Enhanced Antimicrobial and Antibiofilm Potential” (Molecular Informatics, 2026).
Read-outs that look alike come from different tables or passages of the source. Ends that are not written are not given here. Peptide text beside a SMILES is read from it.

Tests used:
[1] = system: human red blood cells; experiment: Hemolysis assay; format: cell-based
Description: (§1) To evaluate the safety profiles of predicted peptides, we conducted hemolysis and PBMC cytotoxicity assays on three representative candidates (J20: LKIKVHIYRMKR, J28: FRVCYRGICYRR, J39: […]). These peptides were randomly selected from the top 22 peptides predicted by our classification model to outperform the reference peptide IDR‐1018 in antibiofilm activity. All three peptides were synthesized at > 95% purity and tested in standard in vitro assays.

[2] = system: human PBMCs; experiment: PBMC cytotoxicity assay; format: cell-based
Description: as §1

[3] = system: methicillin‐resistant Staphylococcus aureus (MRSA); details: read-out: IC50 antimicrobial (planktonic); MRSA in 10% tryptic soy broth + 0.1% glucose, overnight 37°C, growth by OD600; peptide array samples; nplr fit
Experimental: (§2) Peptide arrays on cellulose membranes were made by Kinexus Bioinformatics Corporation (Vancouver, BC, Canada) and were obtained as cleaved free peptide associated with the punched‐out spot of the cellulose membrane. Stock solutions of the peptide array samples were prepared by dissolving the free peptide in 200 µL of endotoxin‐free sterile water, incubating at room temperature for ~ 1 h, and then transferring the resulting peptide solution to a sterile microfuge tube for subsequent antimicrobial activity assays. The concentration of the stock peptide array samples was determined by measuring the absorbance at 280 nm of the solution (in duplicate) on a BioTek Epoch Microplate Spectrophotometer using the Take3TM Multi‐Volume Plate. A theoretical extinction coefficient of each peptide was determined based on the number of Trp and Try residues1 in the peptide sequence according to the formula: (#Trp) × 5500 M^− ^1 cm^− ^1 + (#Tyr) × 1490 M^− ^1 cm^− ^1, and the concentration of the peptide in solution was calculated according to the Beer–Lambert law. Any Cys residues within the peptide samples were assumed not to be present in a disulfide bond, so their contribution to the extinction coefficient at 280 nm was ignored.
(§3) Peptides were synthesized on peptide arrays and tested as described previously. Briefly, the antimicrobial activity and biofilm inhibition activity of the peptide array samples were assessed against methicillin‐resistant Staphylococcus aureus (MRSA). Briefly, twofold serial dilutions of the peptide array sample (10 μL final volume) were prepared in 96‐well plates and then 90 μL of a 1:100 dilution of an overnight culture of MRSA diluted in 10% tryptic soy broth supplemented with 0.1% glucose was added to each well and the plates were incubated overnight at 37°C. The following day, bacterial growth was quantified by measuring the optical density at 600 nm (OD600) of each sample well while the amount of biofilm was quantified by rinsing the wells of the plate with distilled water and staining the adhered biomass with 0.1% crystal violet solution. The amount of adhered biomass was quantified by recording the absorbance at 595 nm (A595). Dose–response curves were drawn for each peptide based on the bacterial growth (OD600) or biofilm inhibition (A595) and normalizing the percent of peptide inhibition relative to untreated bacteria (100% growth) or sterile media (0% growth). The concentration of peptide required to inhibit 50% of bacterial or biofilm growth (IC50) was calculated by nonlinear regression fit of the dose–response curves using the N‐Parameter Logistic Regression (nplr) package.

[4] = system: methicillin‐resistant Staphylococcus aureus (MRSA) biofilm; details: read-out: IC50 Biofilm; MRSA in 10% tryptic soy broth + 0.1% glucose, overnight 37°C, adhered biomass stained with 0.1% crystal violet, A595; peptide array samples; nplr fit
Experimental: as §2, §3

[5] = system: biofilm; experiment: Minimum biofilm inhibitory concentration (MBIC); format: cell-based; details: peptides > 95% purity; Table S1

Compound	IC50 [3] [nM]	IC50 [4] [nM]	other results
CC[C@H](C)[C@H](NC(=O)CNC(=O)[C@H](CCCNC(=N)N)NC(=O)[C@H](Cc1ccc(O)cc1)NC(=O)[C@H](CS)NC(=O)[C@@H](NC(=O)[C@H](CCCNC(=N)N)NC(=O)[C@@H](N)Cc1ccccc1)C(C)C)C(=O)N[C@@H](CS)C(=O)N[C@@H](Cc1ccc(O)cc1)C(=O)N[C@@H](CCCNC(=N)N)C(=O)N[C@@H](CCCNC(=N)N)C(N)=O [compound 28] (H-FRVCYRGICYRR-NH2; N-terminus assumed)			Hemolysis IC50 ([1]; red cells of human): > 250 µg/mL; PBMC IC50 (cytotoxicity) [2]: > 250 µg/mL
GLKSFARVLKKI-NH2 [compound 33]	1150		
KLVRRKGRLYVI-NH2 [compound 50]		400	
LFKFLGKKVLKT-NH2 [compound 9]		470	
LKIKVHIYRMKR-NH2 [compound 20]		350	Hemolysis IC50 ([1]; red cells of human): > 250 µg/mL; PBMC IC50 (cytotoxicity) [2]: 166.1 µg/mL; Biofilm-inhibitory concentration (MBIC) [5]: 1 to 4 µg/mL
RALKKIIKRLCR-NH2 [compound 86]	710	380	
RARGRKRLVVTI-NH2 [compound 40]		300	
RGFVRLKKWFNI-NH2 [compound 39]		230	Hemolysis IC50 ([1]; human erythrocytes, concentration range 1–256 μg/mL, peptides > 95% purity): > 250 µg/mL; PBMC IC50 (cytotoxicity) ([2]; human PBMCs, peptides > 95% purity): > 250 µg/mL; Biofilm-inhibitory concentration (MBIC) [5]: 1 to 4 µg/mL
RLHGFLIRMRTR-NH2 [compound 44]	1190		
RRRAKGRIRLIV-NH2 [compound 62]	890		
RVVRRKGRIYIL-NH2 [compound 81]		440	
VRLIVAVRIWRR-NH2 [IDR‐1018, reference compound]	1730	1420	
WKKKGRMRWKWI-NH2 [compound 10]		270	
